Data reported in patent US7417069B2, “Halogenated triptolide derivatives as immunomodulators and anticancer agents” (priority 2003, dated 2008).
“Also recorded” adds a separate entry of the source.

How the values were obtained:
[1] = test system: Jurkat human T lymphoma cell line; experiment: Annexin V apoptosis assay; assay type: cell-based; conditions: induction of apoptosis in Jurkat cells, 24 hours, relative to triptolide (FIGS. 3A-B)
Protocol: Test samples were diluted to 1 mM in complete tissue culture medium (RPMI 1640 medium plus 5% heat-inactivated fetal calf serum, 1% HEPES, 1% pen/strep, 1% glutamine). Aliquots were placed in microculture plates and serial dilutions were prepared so that the final concentration would encompass the range of 2 to 6,000 nM with half-log increments. Cells from an exponentially expanding culture of the Jurkat human T lymphoma cell line (#TIB-152 obtained from American Type Culture Collection, Manassas, Va.) were harvested, washed once by centrifugation, re-suspended in complete tissue culture medium, and further diluted to a concentration of 1×10^6 cells/ml. A volume of 100 μl of the cells (1×10^5 cells) was added to wells containing 100 μl of the diluted compounds, and the plates were incubated at 37° C. in a 5% CO2 incubator.
After 24 hours, the plates were centrifuged to pellet the cells, and the cells were washed twice with 2% heat-inactivated fetal calf serum in PBS. […] The contents of the wells were individually transferred into test tubes, and apoptosis was analyzed using a FACSCalibur flow cytometer (BD Immunocytometry Systems, San Jose, Calif.). Cells positive for Annexin V binding were considered to be apoptotic, and the data were calculated as percent apoptotic cells. […]

[2] = test system: IL-2 production in Jurkat cells; experiment: IL-2 production assay (immunosuppression assay); assay type: cell-based, human; conditions: for fold less potent than triptolide in the immunosuppression assay: inhibition of IL-2 production in Jurkat cells, relative to triptolide (FIGS. 4A-B)
Protocol: Test samples were diluted to 1 mM in complete tissue culture medium. Aliquots were placed in microculture plates that had been coated with anti-CD3 antibody (used to stimulate the production of IL-2 by Jurkat cells), and serial dilutions were prepared so that the final concentration would encompass the range of 0.001 to 10,000 nM in log increments. Cells from an exponentially expanding culture of Jurkat human T cell line (#TIB-152 obtained from American Type Culture Collection, Manassas, Va.) were harvested, washed once by centrifugation, re-suspended in complete tissue culture medium, and diluted to a concentration of 2×10^6 cells/ml. A volume of 50 μl of Jurkat cells (1×10^5 cells) was added to wells containing 100 μl of the diluted compounds, 50 μl of PMA (10 ng/ml) was added to each well, and the plates were incubated at 37° C. in a 5% CO2 incubator. After 24 hours, the plates were centrifuged to pellet the cells, 150 μl of supernatant was removed from each well, and the samples were stored at −20° C. The stored supernatants were analyzed for human IL-2 concentration using the Luminex 100 (Luminex Corporation, Austin, Tex.), Luminex microspheres coupled with anti-IL-2 capture antibody, and fluorochrome-coupled anti-IL-2 detection antibody. The data were expressed as pg/ml of IL-2.
The data were plotted as the concentration of compound versus IL-2 concentration. The results for PG763 (14-deoxy-14α-fluorotdptolide), compared with PG490 (triptolide) and a solvent control, are given in FIG. 2. Comparative data for other 14-substituted triptolides, 14α-hydroxytriptolide (also referred to as epitriptolide; designated PG524) and 14β-(methylthio)methyltriptolide (designated PG691), compared with PG490 (triptolide), are given in FIGS. 4A-B.

[3] = test system: human T cell lymphoma (Jurkat) cells; experiment: Cytotoxicity (MTT) assay; assay type: cell-based; conditions: 24 h, in comparison with triptolide (FIG. 1)
Protocol: Test compounds were dissolved in DMSO at a concentration of 20 mM. Further dilutions were done in RPMI 1640 medium (GIBCO, Rockville, Md.) supplemented with 10% Fetal Calf Serum (HyClone Laboratories, Logan, Utah).
Cytotoxicity of the compounds was determined in a standard MTT assay using Cell Proliferation Kit I (#1 465 007, Roche Diagnostics, Mannheim, Germany). Briefly, human T cell lymphoma (Jurkat) cells (4×10^5 per well) were cultured for 24 h, in 96-well tissue culture plates, in the presence of serial three-fold dilutions of test compounds or medium containing the same concentration of DMSO as in the test samples at each dilution point. The cultures were then supplemented with 10 μl/well MTT reagent for 4h and then with 0.1 ml/well solubilizing reagent for an additional 16 h. Optical density at 570 nm (OD570) was measured on a ThermoScan™ microplate reader (Molecular Devices, Menlo Park, Calif.). The data is presented as OD570 values versus concentration of the compounds. The results for PG763 (14-deoxy-14α-fluorotriptolide), compared with PG490 (triptolide) and a medium control, are given in FIG. 1.

SMILES	fold less potent than triptolide in the apoptosis assay [1] [fold]	fold less potent than triptolide in the immunosuppression assay [2]	cytotoxicity in Jurkat cells [3]	inhibition of IL-2 production in Jurkat cells ([2]; anti-CD3 and PMA stimulated, 24 hours, in comparison with triptolide (FIG. 2))
CSCOC1C2(C(C)C)OC2C2OC23C2(C)CCC4=C(COC4=O)C2CC2OC213 (stereo not drawn) [14β-(methylthio)methyl triptolide, 14-β-(methylthio)methyl triptolide]	~40	approximately 60 fold		
CC(C)[C@]12O[C@H]1[C@@H]1O[C@]13[C@]1(O[C@H]1C[C@H]1C4=C(CC[C@@]13C)C(=O)OC4)[C@H]2F [PG763, 14-deoxy-14α-fluorotriptolide]			nearly equivalent to that of triptolide; also recorded: in a dose-dependent manner, at concentrations comparable to those in similar assays using triptolide	nearly equivalent to that of triptolide; also recorded: in a dose-dependent manner, at concentrations comparable to those in similar assay using triptolide
CC(C)[C@]12O[C@H]1[C@@H]1O[C@]13[C@]1(O[C@H]1C[C@H]1C4=C(CC[C@@]13C)C(=O)OC4)[C@H]2O [epitriptolide, 14-α-hydroxytriptolide]	~25	approximately 30 fold		
